Laboratory results as given in patent US4224343A, “Process and composition for decreasing blood serum prolactin levels” (Massachusetts Institute of Technology, priority 1979, dated 1980).
“And” between values parts separate entries of the source, which are not always exact repeats. Identical values can stand only once. Like-named read-outs stand apart in the source and are kept apart here.

What was measured:
brain dopamine release = experiment: Accumulation of HVA in corpora striata of rats given haloperidol or probenecid after tyrosine (FIG. 2); conditions: for striatal HVA concentration: tyrosine 100 mg/kg or diluent, 20 min later haloperidol 2 mg/kg or probenecid 200 mg/kg i.p., sacrificed 70 min after second injection, corpora striata
Description: Male, 150 to 200 g Sprague-Dawley rats (Charles River Breeding Laboratories, Wilmington, MA) were exposed to light (Vita-Lite, Duro-Test Co., North Bergen, N.J.) between 9 AM and 9 PM daily and allowed access to Big Red Rat Chow (Charles River Breeding Laboratories) and water ad limitum. Drugs were injected intraperitoneally at a volume of 2 ml/kg body weight. […] Control animals received the appropriate diluents. […] Brains were quickly removed, and the striata were dissected out (Glowinski and Iverson, 1966), frozen on dry ice, and subsequently assayed for HVA. Tyrosine was assayed in homogenates of the remaining brain (Waalkes and Udenfriend, 1957).

[1] = target: T1, Striatal Tyrosine Hydroxylase (Rattus norvegicus, UniProt P04177); experiment: Kms of striatal tyrosine hydroxylase after in vivo pretreatment; assay type: biochemical; conditions: for Km: striatal homogenate of treated rats
T1 construct: 10,000 g supernatant of Triton X-100 homogenate of rat corpus striatum
Description: Corpora striata were homogenized in 10 volumes of 0.05 M Tris-acetate buffer (pH 6.0), containing 0.2 percent Triton X-100 (Harleco, Philadelphia, PA). The homogenates were centrifuged for 10 min. at 10,000 g, and the supernatant fluids were collected for assay (Coye, 1972). The assay medium contained, in a total volume of 110 μl: 50 μl of a supernatant fluid; 65 nmoles of DMPH4 (2-amino-4-hydroxy-6,7-dimethyl-5,6,7,8-tetrahydropteridine hydrochloride [synthetic cofactor obtained from Calbiochem, San Diego, CA]); 29 nanomoles of pyridoxal phosphate; 4 nanomoles of 2-mercaptoethanol; 240 units of catalase; 0.01 millimoles phosphate buffer (pH 6.2); and 10 μl of aromatic L-amino acid decarboxylase prepared from hog kidneys (Coyle, 1972). Samples were preincubated for 2 min. at 27° C.
The assay was stopped by the addition of 0.5 ml of 10 percent trichloroacetic acid. The acidified medium was then shaken for 2 hours to recover the ^14 CO2, which was trapped by folded filter paper strips placed in 0.2 ml of NCS tissue solubilizer (Amersham/Searle, Arlington Heights, IL). The strips were then transferred to scintillation vials containing 10 ml of Aquasol (New England Nuclear, Boston, MA), and their radioactivity was counted.

[2] = system: Norepinephrine synthesis and turnover in brain neurons; experiment: Accumulation of brain MOPEG-SO4 after probenecid administration and pretreatment with tyrosine; conditions: for Brain MOPEG-SO4 Level / Brain Tyrosine Level: killed 60 min after second injection, whole brain, mean ± SEM; for effect on brain MOPEG-SO4: substance given alone, versus diluent; for effect on brain tyrosine levels: tyrosine 100 mg/kg i.p., probenecid 400 mg/kg, two-way analysis of variance
From the text: (§1) Male Sprague-Dawley rats (Charles River Breeding Laboratories, Wilmington, MA) weighing 150 g were housed in hanging cages (6-8 per cage), given ad libitum access to tap water and a 26% protein diet (Charles River Rat-Mouse-Hamster Maintenance Formula 24RF), and maintained under light (300 microwatts/cm^2; Vita-Lite, Duro-Test Corp., North Bergen, N.J.) between 8 AM and 8 PM daily. Rats used for diet experiments were fasted overnight and then allowed to consume the experimental diet starting at 10 AM. Diets of different compositions were prepared in agar gel ([…] of water) as described by Gibson et al., Biochem. Pharmacol., 26, 1137-1142 (1977). All amino acids and drugs were injected intraperitoneally.
(§2) Norepinephrine synthesis and turnover in brain neurons were estimated by measuring the rate of accumulation of MOPEG-SO4 after probenecid administration or exposure to a cold environment. […] An aliquot of each homogenate (in 0.15 M ZnSO4) was first assayed for tyrosine by the method of Waalkes and Undenfriend, J. Lab. Clin. Med., 50, 733-736 (1957). An equal volume of 0.15 M barium hydroxide was then added to the remaining homogenate, which was rehomogenized (Polytron, Brinkman Instruments, N.Y.), centrifuged and assayed for MOPEG-SO4 by the method of Meek and Neff above.
Tyrosine (Grand Island Biological Co., Long Island, N.Y.) and probenecid (Sigma Chemical Co., St. Louis, MO), which are poorly soluble in water, were dissolved in dilute NaOH; the solutions were then buffered to pH 7.4 with hydrochloric acid and brought to a known volume with saline. This yielded a fine suspension that was suitable for injection.
In each of 3 experiments, groups of 4-6 rats were injected with either a
dose of tyrosine (100 mg/kg, i.p.) known to accelerate brain dopa
synthesis or its diluent and, 30 min. later, with probenecid (400 mg/kg,
[…].) or its diluent. Animals were killed 60 min. after the second
injection, and their whole brains were analyzed for tyrosine and […]

[3] = system: Norepinephrine synthesis and turnover in brain neurons; experiment: Brain tyrosine and MOPEG-SO4 in rats exposed to cold (4° C.) after amino acid injection (FIG. 1)
From the text: as §1, §2
In experiments on stress produced by exposure to cold, animals received the more soluble ethyl-ester form of tyrosine (J. T. Baker, Phillipsburg, N.J.), instead of tyrosine itself, to raise brain tyrosine levels. Data were analyzed by one-way or two-way analysis of variance.
Placing the rats in a cold environment (4° C.) increases norepinephrine turnover; this accelerates the formation of both norepinephrine itself and its metabolite, MOPEG-SO4, in brain neurons. The rats were exposed to cold to determine whether treatments that changed brain tyrosine levels could influence the rate at which the brain accumulates MOPEG-SO4 in rats exposed to cold stress and not given probenecid (FIG. 1).
The relationship shown in FIG. 1 was obtained as follows: Groups of rats were injected intraperitoneally with valine (200 mg/kg), an amino acid that competes with tyrosine for uptake into the brain (8), or with tyrosine (125 mg/kg of the ethyl ester) or saline; 30 min. later they were placed in single cages in a cold (4° C.) environment. After 1 hr., all animals were killed, and their whole brains were analyzed for tyrosine and MOPEG-SO4. Control animals were injected with saline and left at room temperature (22° C.), also in a single cages, for 90 min. Each point represents the tyrosine and MOPEG-SO4 levels present in a single brain. Data were pooled from several experiments. […] In FIG. 1, the symbols are as follows: closed circles, animals pretreated with valine; open circles, animals pretreated with saline; closed squares, animals pretreated with tyrosine.

Serum Prolactin = experiment: Serum prolactin by radioimmunoassay in reserpine-treated rats; assay type: in vivo, rat
Description: Groups of 4 male rats received reserpine (2.5 mg/kg/day, divided into two equal doses each day) intraperitoneally for four days. On day 5, in the morning, no reserpine was administered, but instead half of the animals received tyrosine (200 mg/kg) or the vehicle (saline), and were killed two hours later. Sera were collected and assayed by radioimmunoassay for prolactin.

[4] = pretreatment (tyrosine 100 mg/kg i.p. or diluent), 30 min later probenecid 400 mg/kg
[5] = pretreatment tyrosine 100 mg/kg i.p., 30 min later diluent
[6] = tyrosine 125 mg/kg of the ethyl ester i.p., cold (4° C.) 1 hr

T1 sequence (P04177 whole entry): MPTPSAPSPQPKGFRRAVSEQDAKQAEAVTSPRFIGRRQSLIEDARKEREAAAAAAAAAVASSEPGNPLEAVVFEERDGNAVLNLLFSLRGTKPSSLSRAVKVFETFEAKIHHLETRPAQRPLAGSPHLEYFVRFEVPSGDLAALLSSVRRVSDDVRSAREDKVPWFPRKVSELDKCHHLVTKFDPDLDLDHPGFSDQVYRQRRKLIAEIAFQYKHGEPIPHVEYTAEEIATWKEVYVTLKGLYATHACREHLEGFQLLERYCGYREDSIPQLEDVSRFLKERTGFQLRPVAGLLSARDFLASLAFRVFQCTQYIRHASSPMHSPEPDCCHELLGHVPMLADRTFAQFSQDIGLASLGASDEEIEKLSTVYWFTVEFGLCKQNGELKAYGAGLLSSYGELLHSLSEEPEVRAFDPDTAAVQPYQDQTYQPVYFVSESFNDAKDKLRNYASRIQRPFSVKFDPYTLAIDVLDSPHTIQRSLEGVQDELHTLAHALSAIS

For `O=C(CCCN1CCC(O)(c2ccc(Cl)cc2)CC1)c1ccc(F)cc1` [Haloperidol, haloperidol], the “striatal HVA concentration” value (brain dopamine release) was 2.00 ± 0.10 µg/g, the Km ([1]; DMPH4 concentrations 0.1 to 0.5 mM, read-out: Km for DMPH4) was 130 ± 10 µM and the Km ([1]; tyrosine concentrations 0.125-1.0 mM, read-out: Km for tyrosine) was 48.1 ± 1.9 µM.
With `CCCN(CCC)S(=O)(=O)c1ccc(C(=O)O)cc1` [Probenecid, probenecid, reference compound] the “Brain MOPEG-SO4 Level” value [2, 4] was 175 ng/g and 175 ± 6 ng/g, the “effect on brain MOPEG-SO4” value [2] was “significantly raised” and the “effect on brain tyrosine levels” value [2] was “failed to modify”. For the same molecule, the “striatal HVA concentration” value (brain dopamine release) was 1.30 ± 0.10 µg/g.
For `N[C@@H](Cc1ccc(O)cc1)C(=O)O` [Tyrosine, tyrosine], the “Brain MOPEG-SO4 Level” value [2, 4] was 203 ng/g and 203 ± 8 ng/g, the “Brain Tyrosine Level” value [2, 4] was 24.7 ± 1.3 µg/g and the “Brain MOPEG-SO4 Level” value [2, 5] was 127 ± 2 ng/g. The “Brain Tyrosine Level” value [2, 5] was 23.3 ± 1.5 µg/g, the “effect on brain MOPEG-SO4” value [2] was “no effect” and the “effect of tyrosine pretreatment on the probenecid-induced rise in MOPEG-SO4” value ([2]; tyrosine 100 mg/kg i.p. 30 min before probenecid 400 mg/kg) was “significantly enhanced”. The “effect on brain tyrosine levels” value [2] was “significantly raised”, the brain tyrosine levels ([3]; i.p. injection (tyrosine 125 mg/kg of the ethyl ester; valine 200 mg/kg) 30 min before 1 hr in cold (4° C.), whole brain) was 24.6 µg/g and the “brain MOPEG-SO4 levels” value ([3]; tyrosine 125 mg/kg of the ethyl ester i.p. 30 min before 1 hr in cold (4° C.), whole brain) was 193 ng/g. For the same molecule, the “rise in brain MOPEG-SO4 versus saline-injected animals” value [3, 6] was 70%, the “rise in brain tyrosine levels versus saline-injected animals” value [3, 6] was “about 80%” and the “potentiation of the accumulation of HVA in striata of haloperidol-treated rats” value (brain dopamine release; tyrosine 100 mg/kg 20 min before haloperidol 2 mg/kg) was 59%. For the same molecule, the “effect on HVA levels in animals given probenecid” value (brain dopamine release; tyrosine 100 mg/kg 20 min before probenecid 200 mg/kg) was “failed”, the “effect of prior administration on the Kms of tyrosine hydroxylase for tyrosine or DMPH4 in vitro” value ([1]; tyrosine 100 mg/kg in vivo) was “failed to affect” and the “Serum Prolactin” value (Serum Prolactin; male rats, reserpine […] i.p. for four days, day 5 tyrosine 200 mg/kg, killed two hours later, mean ± standard error) was 44 ± 2 ng/mL. For the same molecule, the “effect on serum prolactin levels” value (Serum Prolactin; reserpine-pretreated rats, tyrosine 200 mg/kg) was “lowers serum prolactin levels”.
In the case of `CC(C)[C@H](N)C(=O)O` [valine, reference compound], the “effect on brain tyrosine or MOPEG-SO4 levels” value ([3]; valine 200 mg/kg i.p., cold (4° C.) 1 hr) is reported as “failed, in this study, to cause significant alterations”.
